Source: patent US11780821B2, “Inhibitors of fibroblast activation protein” (Praxis Biotech LLC, priority 2017, dated 2023)
Where a name gives a salt, the structure may show the parent alone. Read-outs that look alike come from different tables or passages of the source.

Columns and labels:
Format in all cases: biochemical
[1] = molecular target: T1, recombinant human FAPα (rhFAPα) (Homo sapiens, UniProt Q12884); assay: FAPα enzymatic exopeptidase (dipeptidase) activity assay; conditions: for inhibition at 1 µM: 1 μM test compound, Z-Gly-Pro-AMC substrate, read-out: rhFAPα (% exo inh @ 1 μM); for IC50: exopeptidase, read-out: rhFAPα (exo IC50)
T1 construct: purchased R&S system (so in the source)
T1 sequence (Q12884 1-760): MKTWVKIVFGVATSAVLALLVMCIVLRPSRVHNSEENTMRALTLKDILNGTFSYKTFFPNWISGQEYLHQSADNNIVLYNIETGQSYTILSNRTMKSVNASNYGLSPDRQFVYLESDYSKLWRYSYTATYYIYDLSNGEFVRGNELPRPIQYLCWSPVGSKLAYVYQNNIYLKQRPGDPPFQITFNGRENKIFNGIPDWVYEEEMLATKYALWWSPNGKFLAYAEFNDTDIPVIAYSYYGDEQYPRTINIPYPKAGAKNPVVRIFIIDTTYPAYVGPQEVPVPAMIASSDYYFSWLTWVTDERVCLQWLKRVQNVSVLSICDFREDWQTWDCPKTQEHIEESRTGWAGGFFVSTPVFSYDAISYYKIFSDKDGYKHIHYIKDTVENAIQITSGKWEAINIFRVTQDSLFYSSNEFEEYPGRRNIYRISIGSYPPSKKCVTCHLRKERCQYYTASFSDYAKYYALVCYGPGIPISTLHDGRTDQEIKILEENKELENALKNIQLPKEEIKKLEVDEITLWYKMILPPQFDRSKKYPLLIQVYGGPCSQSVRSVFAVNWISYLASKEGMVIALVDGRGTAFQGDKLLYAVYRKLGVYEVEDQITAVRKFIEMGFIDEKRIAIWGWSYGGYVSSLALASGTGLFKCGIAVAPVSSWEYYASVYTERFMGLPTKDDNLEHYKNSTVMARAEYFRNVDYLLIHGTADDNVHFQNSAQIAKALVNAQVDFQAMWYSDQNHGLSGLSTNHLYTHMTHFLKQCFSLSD

[2] = molecular target: T2, recombinant human DPPIV (rhDPPIV) (Homo sapiens, UniProt P27487); assay: DPPIV enzymatic activity assay; conditions: H-Gly-Pro-pNA substrate
T2 construct: purchased R&S system (so in the source)
T2 sequence (P27487 whole entry): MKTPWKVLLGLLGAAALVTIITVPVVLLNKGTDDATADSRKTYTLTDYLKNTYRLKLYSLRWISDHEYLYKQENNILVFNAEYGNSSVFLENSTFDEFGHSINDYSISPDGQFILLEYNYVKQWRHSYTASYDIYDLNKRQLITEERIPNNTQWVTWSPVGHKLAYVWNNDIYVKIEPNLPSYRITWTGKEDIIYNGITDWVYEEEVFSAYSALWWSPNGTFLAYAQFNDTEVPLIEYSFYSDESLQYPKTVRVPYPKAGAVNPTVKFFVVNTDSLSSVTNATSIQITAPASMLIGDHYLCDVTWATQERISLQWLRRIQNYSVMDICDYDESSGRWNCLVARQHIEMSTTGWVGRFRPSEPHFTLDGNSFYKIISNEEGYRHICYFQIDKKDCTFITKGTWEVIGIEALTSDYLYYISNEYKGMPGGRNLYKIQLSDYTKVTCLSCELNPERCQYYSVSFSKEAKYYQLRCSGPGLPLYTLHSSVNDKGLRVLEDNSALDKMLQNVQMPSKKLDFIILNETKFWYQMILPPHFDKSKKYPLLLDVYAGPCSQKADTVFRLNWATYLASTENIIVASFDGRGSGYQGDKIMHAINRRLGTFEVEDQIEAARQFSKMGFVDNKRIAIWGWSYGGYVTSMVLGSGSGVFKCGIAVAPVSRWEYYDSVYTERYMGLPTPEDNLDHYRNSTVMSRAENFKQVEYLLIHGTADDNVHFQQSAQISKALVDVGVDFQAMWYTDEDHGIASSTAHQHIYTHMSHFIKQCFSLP

[3] = molecular target: T3, recombinant human PREP (rhPREP) (Homo sapiens, UniProt P48147); assay: PREP enzymatic activity assay; conditions: Z-Gly-Pro-AMC substrate
T3 sequence (P48147 1-710): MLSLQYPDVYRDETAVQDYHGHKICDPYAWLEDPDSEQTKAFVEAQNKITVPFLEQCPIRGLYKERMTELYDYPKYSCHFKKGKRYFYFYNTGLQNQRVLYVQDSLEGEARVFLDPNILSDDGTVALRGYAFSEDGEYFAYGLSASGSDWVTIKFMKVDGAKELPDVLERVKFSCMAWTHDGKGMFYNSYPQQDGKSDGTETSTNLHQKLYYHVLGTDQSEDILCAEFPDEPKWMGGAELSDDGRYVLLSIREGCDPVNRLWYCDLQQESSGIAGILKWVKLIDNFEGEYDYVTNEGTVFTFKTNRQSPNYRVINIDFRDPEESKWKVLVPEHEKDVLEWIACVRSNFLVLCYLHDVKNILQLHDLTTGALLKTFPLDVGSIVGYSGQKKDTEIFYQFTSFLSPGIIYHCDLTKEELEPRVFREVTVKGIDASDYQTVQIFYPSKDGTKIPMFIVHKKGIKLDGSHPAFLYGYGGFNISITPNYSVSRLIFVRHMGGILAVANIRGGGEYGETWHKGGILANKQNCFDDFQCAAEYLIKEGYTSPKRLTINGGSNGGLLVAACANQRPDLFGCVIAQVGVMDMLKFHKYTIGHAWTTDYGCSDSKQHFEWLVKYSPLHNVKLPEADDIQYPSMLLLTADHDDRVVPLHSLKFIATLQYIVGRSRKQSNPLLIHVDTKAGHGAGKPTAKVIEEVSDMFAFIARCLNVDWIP
Method: (§1) 7-Amino-4-Methylcoumarin (AMC) release was detected by measuring fluorescence at Ex/Em 380/460 nm using a Multifunction Microplate Reader (Synergy 4, Biotek). All measurements were carried out in triplicate.

[4] = molecular target: T4, recombinant human DPP9 (rhDPP9) (Homo sapiens, UniProt Q86TI2); assay: DPP9 enzymatic activity assay; conditions: H-Gly-Pro-AMC substrate
T4 construct: purchased R&S system (so in the source)
T4 sequence (Q86TI2 whole entry): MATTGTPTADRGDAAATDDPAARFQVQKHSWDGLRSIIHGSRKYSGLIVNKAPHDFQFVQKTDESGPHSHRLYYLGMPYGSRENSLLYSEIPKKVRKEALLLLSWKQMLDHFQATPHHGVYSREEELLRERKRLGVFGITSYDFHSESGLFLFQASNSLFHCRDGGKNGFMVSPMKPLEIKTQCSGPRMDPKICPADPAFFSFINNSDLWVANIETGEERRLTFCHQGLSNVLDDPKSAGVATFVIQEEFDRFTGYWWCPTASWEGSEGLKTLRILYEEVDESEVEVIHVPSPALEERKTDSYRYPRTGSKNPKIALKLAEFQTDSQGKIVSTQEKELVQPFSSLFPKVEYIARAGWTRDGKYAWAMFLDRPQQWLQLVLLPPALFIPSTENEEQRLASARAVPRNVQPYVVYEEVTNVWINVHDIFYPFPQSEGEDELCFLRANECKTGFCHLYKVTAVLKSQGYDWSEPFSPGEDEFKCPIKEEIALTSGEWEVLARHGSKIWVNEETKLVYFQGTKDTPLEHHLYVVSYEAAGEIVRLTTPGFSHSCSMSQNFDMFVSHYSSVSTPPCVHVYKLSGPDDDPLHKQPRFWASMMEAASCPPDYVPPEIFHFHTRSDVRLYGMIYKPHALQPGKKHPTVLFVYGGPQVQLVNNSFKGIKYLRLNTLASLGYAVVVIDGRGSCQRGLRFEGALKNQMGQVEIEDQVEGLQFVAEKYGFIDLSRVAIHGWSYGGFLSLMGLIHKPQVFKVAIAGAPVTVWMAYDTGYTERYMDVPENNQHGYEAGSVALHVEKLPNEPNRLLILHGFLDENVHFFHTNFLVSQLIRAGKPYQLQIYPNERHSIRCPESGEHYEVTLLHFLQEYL
Method: as §1

inhibition at 1 µM [1] [%] | IC50 ([1]; Table 2, Z-Gly-Pro-AMC) [µM] | IC50 ([1]; Table 3) [µM] | IC50 [2] [µM] | IC50 [3] [µM] | IC50 [4] [µM] | Structure (SMILES)
> 50 | < 1 | < 1 | 1 to 10 | > 10 | > 10 | N#C[C@@H]1CC(F)(F)CN1C(=O)CNC(=O)c1c[nH]c(=O)cc1-c1ccnc2ccccc12 [Compound 116, (S)—N-(2-(2-cyano-4,4-difluoropyrrolidin-1-yl)-2-oxoethyl)-6-oxo-4-(quinolin-4-yl)-1,6-dihydropyridine-3-carboxamide]
> 50 | < 1 | < 1 | > 10 | > 10 | > 10 | Cc1ccccc1-c1cnccc1C(=O)NCC(=O)N1CC(F)(F)C[C@H]1C#N [Compound 64, (S)—N-(2-(2-cyano-4,4-difluoropyrrolidin-1-yl)-2-oxoethyl)-3-(o-tolyl)isonicotinamide]
> 50 | < 1 | < 1 | 1 to 10 | > 10 | > 10 | N#C[C@@H]1CC(F)(F)CN1C(=O)CNC(=O)c1ccncc1-c1ccnc2ccccc12 [Compound 51, (S)—N-(2-(2-cyano-4,4-difluoropyrrolidin-1-yl)-2-oxoethyl)-3-(quinolin-4-yl)isonicotinamide]
> 50 | < 1 | < 1 | 1 to 10 | > 10 | 1 to 10 | N#C[C@@H]1CC(F)(F)CN1C(=O)CNC(=O)c1ccncc1-c1ccc(N)nc1 [Compound 107, (S)-6′-amino-N-(2-(2-cyano-4,4-difluoropyrrolidin-1-yl)-2-oxoethyl)-[3,3′-bipyridine]-4-carboxamide formate]
> 50 | < 1 | < 1 | > 10 | > 10 | > 10 | N#C[C@@H]1CC(F)(F)CN1C(=O)CNC(=O)c1ccncc1Nc1ccccc1 [Compound 102]
> 50 | < 1 | < 1 | > 10 | > 10 | > 10 | N#C[C@@H]1CC(F)(F)CN1C(=O)CNC(=O)c1ccncc1Nc1ccnc2ccccc12 [Compound 119, (S)—N-(2-(2-cyano-4,4-difluoropyrrolidin-1-yl)-2-oxoethyl)-3-(quinolin-4-ylamino)isonicotinamide]
> 50 | < 1 | < 1 | > 10 | 1 to 10 | > 10 | N#C[C@@H]1CC(F)(F)CN1C(=O)CNC(=O)c1ccncc1Sc1ccccc1 [Compound 115, (S)—N-(2-(2-cyano-4,4-difluoropyrrolidin-1-yl)-2-oxoethyl)-3-(phenylthio)isonicotinamide]

More lines, now with the values behind:

Structure (SMILES) | inhibition at 1 µM [1] [%] | IC50 ([1]; Table 2, Z-Gly-Pro-AMC) [µM] | IC50 ([1]; Table 3) [µM] | IC50 [2] [µM] | IC50 [3] [µM] | IC50 [4] [µM]
Cc1noc(C)c1-c1cnccc1C(=O)NCC(=O)N1CC(F)(F)C[C@H]1C#N [Compound 110, (S)—N-(2-(2-cyano-4,4-difluoropyrrolidin-1-yl)-2-oxoethyl)-3-(3,5-dimethylisoxazol-4-yl)isonicotinamide] | > 50 | < 1 | < 1 | > 10 | > 10 | > 10
N#C[C@@H]1CC(F)(F)CN1C(=O)CNC(=O)c1ccncc1N1CCCCC1 [Compound 42] | > 50 | < 1 | < 1 | > 10 | > 10 | > 10
Cc1ccc(-c2cnccc2C(=O)NCC(=O)N2CC(F)(F)C[C@H]2C#N)o1 [Compound 106, (S)—N-(2-(2-cyano-4,4-difluoropyrrolidin-1-yl)-2-oxoethyl)-3-(5-methylfuran-2-yl)isonicotinamide] | > 50 | < 1 | < 1 | > 10 | > 10 | > 10
N#C[C@@H]1CC(F)(F)CN1C(=O)CNC(=O)c1c[nH]c(=O)cc1-c1ccccc1 [Compound 29, (S)—N-(2-(2-cyano-4,4-difluoropyrrolidin-1-yl)-2-oxoethyl)-6-oxo-4-phenyl-1,6-dihydropyridine-3-carboxamide] | > 50 | < 1 | < 1 | 1 to 10 | > 10 | > 10
CCOc1cnccc1C(=O)NCC(=O)N1CC(F)(F)C[C@H]1C#N [Compound 113, (S)—N-(2-(2-cyano-4,4-difluoropyrrolidin-1-yl)-2-oxoethyl)-3-ethoxyisonicotinamide] | > 50 | < 1 | < 1 | > 10 | > 10 | > 10
N#C[C@@H]1CC(F)(F)CN1C(=O)CNC(=O)c1ccncc1N1CCC(N)CC1 [Compound 120, (S)-3-(4-aminopiperidin-1-yl)-N-(2-(2-cyano-4,4-difluoropyrrolidin-1-yl)-2-oxoethyl)isonicotinamide 2,2,2-trifluoroacetate] | > 50 | < 1 | < 1 | 1 to 10 | > 10 | > 10
N#C[C@@H]1CC(F)(F)CN1C(=O)CNC(=O)c1ccncc1Nc1cccnc1 [Compound 117, (S)—N-(2-(2-cyano-4,4-difluoropyrrolidin-1-yl)-2-oxoethyl)-3-(pyridin-3-ylamino)isonicotinamide] | > 50 | < 1 | < 1 | > 10 | 1 to 10 | > 10
N#C[C@@H]1CC(F)(F)CN1C(=O)CNC(=O)c1ccc(=O)n2c1CCCCC2 [Compound 21, (S)—N-(2-(2-cyano-4,4-difluoropyrrolidin-1-yl)-2-oxoethyl)-4-oxo-4,6,7,8,9,10-hexahydropyrido[1,2-a]azepine-1-carboxamide] | > 50 | < 1 | < 1 | > 10 | 1 to 10 | > 10
CC(C)(C)c1cccc(-c2cnccc2C(=O)NCC(=O)N2CC(F)(F)C[C@H]2C#N)c1 [Compound 112, (S)-3-(3-(tert-butyl)phenyl)-N-(2-(2-cyano-4,4-difluoropyrrolidin-1-yl)-2-oxoethyl)isonicotinamide] | > 50 | < 1 | < 1 | > 10 | > 10 | > 10
N#C[C@@H]1CC(F)(F)CN1C(=O)CNC(=O)c1ccncc1Nc1ccc(F)cc1 [Compound 114, (S)—N-(2-(2-cyano-4,4-difluoropyrrolidin-1-yl)-2-oxoethyl)-3-((4-fluorophenyl)amino)isonicotinamide 2,2,2-trifluoroacetate] | > 50 | < 1 | < 1 | > 10 | > 10 | > 10
N#C[C@@H]1CC(F)(F)CN1C(=O)CNC(=O)c1ccncc1Oc1ccc(F)cc1 [compound 35] | > 50 | < 1 |  | > 10 | > 10 | > 10
